Test results reported in patent US10752588B2 (The Broad Institute, Inc., priority 2014, dated 2020).
pEC50, pIC50, pKi: −log10 of the molar value. Values after ≈ are worked out from the molar mass of the structure shown. Where two headings read alike, the source gives them in different places.

Experiments:
[1] = Microsomal stability, rat; format: in vitro ADME
human D2R/β-arrestin [2] = target: T1, human D2R/β-arrestin (Homo sapiens (Human), UniProt P14416); test: Gi/cAMP agonist assay (Lance Ultra cAMP, Forskolin); format: cell-based; conditions: CHO-K1 cell line expressing human D2R/β-arrestin
In short: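 Cells were plated and incubated before compounds were pin-transferred and incubated for 10 min at 37 °C. Forskolin was then added to stimulate cAMP. cAMP was detected by Lance Ultra TR-FRET using Eu-cAMP tracer and ULight-anti-cAMP antibody.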

plasma protein [3] = test: Plasma protein binding, mouse; format: in vitro ADME; conditions: for fraction unbound: plasma, read-out: Plasma Protein Binding % bound
Plasma stability, rat = format: in vitro ADME
human D2R/β-arrestin [4] = target: T1, human D2R/β-arrestin; test: β-Arrestin agonist assay (PathHunter); format: cell-based; conditions: CHO-K1 cell line expressing human D2R/β-arrestin
In short: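 After compound incubation, detection reagent (Buffer:Emerald II:Galactor-Star, 19:5:1) added and luminescence or fluorescence read.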

[5] = Microsomal stability, mouse
Solubility in PBS = format: physicochemical; conditions: aqueous buffer
Plasma stability, human = format: in vitro ADME
human D2R/β-arrestin [6] = target: T1, human D2R/β-arrestin; test: cell-based; conditions: cAMP Antagonist, CHO-K1 cell line expressing human D2R/β-arrestin; quinpirole used as agonist
plasma protein [7] = test: Plasma protein binding, rat; format: in vitro ADME; conditions: plasma, read-out: Plasma Protein Binding % bound
human D2R/β-arrestin [8] = target: T1, human D2R/β-arrestin; test: cell-based; conditions: β-arrestin Antagonist, CHO-K1 cell line expressing human D2R/β-arrestin; quinpirole used as agonist
[9] = Microsomal stability, human; format: in vitro ADME
plasma protein [10] = test: Plasma protein binding, human; format: in vitro ADME; conditions: plasma, read-out: Plasma Protein Binding % bound
D2 = D2 (Homo sapiens (Human), UniProt P14416); test: D2 radioligand binding assay
human D2R/β-arrestin [11] = target: T1, human D2R/β-arrestin; conditions: read-out: cAMP Antagonist
human D2R/β-arrestin [12] = target: T1, human D2R/β-arrestin; conditions: read-out: β-arrestin Antagonist
[13] = CHO-K1 cell line expressing human D2R/β-arrestin, quinpirole used as agonist

Chain of D2 (P14416 whole entry): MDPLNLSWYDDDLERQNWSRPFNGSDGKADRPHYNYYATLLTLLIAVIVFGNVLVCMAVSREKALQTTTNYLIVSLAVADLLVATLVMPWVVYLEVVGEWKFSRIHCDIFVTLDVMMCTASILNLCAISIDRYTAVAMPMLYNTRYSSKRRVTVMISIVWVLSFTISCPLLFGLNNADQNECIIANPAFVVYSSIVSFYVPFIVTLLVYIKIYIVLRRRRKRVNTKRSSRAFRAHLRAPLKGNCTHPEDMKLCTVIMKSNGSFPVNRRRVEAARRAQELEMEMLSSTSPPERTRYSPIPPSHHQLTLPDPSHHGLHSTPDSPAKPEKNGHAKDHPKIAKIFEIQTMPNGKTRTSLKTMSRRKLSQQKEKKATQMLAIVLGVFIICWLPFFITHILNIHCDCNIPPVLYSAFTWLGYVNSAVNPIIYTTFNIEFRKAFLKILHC
T1 sequence (P14416 whole entry): as above

## O=C(NC(c1ccc(Cl)cc1)c1ccccn1)C1CCN(CCOc2ccc(F)cc2)CC1 (stereo not drawn) [Compound 5]
[1]
  Microsomal Stability: % remaining after 60 minutes: 84%
Human D2R/β-arrestin [2]
  pEC50: 4.52 to 5.00
Plasma protein [3]
  fraction unbound: 0.021
Plasma stability, rat
  Plasma Stability: % remaining after 5 hours: 95.2%
Human D2R/β-arrestin [4]
  pEC50: < 4.52
[5]
  Microsomal Stability: % remaining after 60 minutes: 42%
Solubility in PBS
  solubility: 311 µM (≈ 146 µg/mL)
Plasma stability, human
  Plasma Stability: % remaining after 5 hours: 91.2%
Human D2R/β-arrestin [6]
  pIC50: 5.00 to 6.00
Plasma protein [7]
  fraction unbound: 0.142
Human D2R/β-arrestin [8]
  pIC50: 5.00 to 6.00
Plasma stability, mouse
  Plasma Stability: % remaining after 5 hours: 90.5%
[9]
  Microsomal Stability: % remaining after 60 minutes: 71%
Plasma protein [10]
  fraction unbound: 0.195

## CC1(C(=O)NC(c2ccc(F)cc2)c2ccccn2)CCN(CCOc2ccccc2)CC1 (single isomer, unassigned) [Compound 69b, N-((4-fluorophenyl)(pyridin-2-yl)methyl)-4-methyl-1-(2-phenoxyethyl)piperidine-4-carboxamide]
Human D2R/β-arrestin [2]
  pEC50: > 7.00
Human D2R/β-arrestin [4]
  pEC50: 6.00 to 7.00
D2
  pKi: 6.00 to 7.00
Human D2R/β-arrestin [8]
  pIC50: 6.00 to 7.00
Human D2R/β-arrestin [11]; [13]
  pIC50: < 4.52

## O=C(NC(c1ccccc1)c1ccc(F)cc1)C1CCN(CCOc2ccccc2)CC1 (stereo not drawn) [Compound 45]
[1]
  Microsomal Stability: % remaining after 60 minutes: 59%
Human D2R/β-arrestin [2]
  pEC50: < 4.52
Plasma protein [3]
  fraction unbound: 0.015
Plasma stability, rat
  Plasma Stability: % remaining after 5 hours: 85%
Human D2R/β-arrestin [4]
  pEC50: < 4.52
[5]
  Microsomal Stability: % remaining after 60 minutes: 62%
Solubility in PBS
  solubility: 6.5 µM (≈ 2.81 µg/mL)
Plasma stability, human
  Plasma Stability: % remaining after 5 hours: 95%
Human D2R/β-arrestin [6]
  pIC50: > 7.00
Plasma protein [7]
  fraction unbound: 0.012
Human D2R/β-arrestin [8]
  pIC50: > 7.00
Plasma stability, mouse
  Plasma Stability: % remaining after 5 hours: 91%
[9]
  Microsomal Stability: % remaining after 60 minutes: 56%
Plasma protein [10]
  fraction unbound: 0.017

## O=C(NC(c1cccc(C(F)(F)F)c1)c1ccccn1)C1CCN(CCOc2ccccc2)CC1 (stereo not drawn) [Compound 32, 1-(2-phenoxyethyl)-N-(pyridin-2-yl(3-(trifluoromethyl)phenyl)methyl) piperidine-4-carboxamide]
[1]
  Microsomal Stability: % remaining after 60 minutes: 46%
Human D2R/β-arrestin [2]
  pEC50: 4.52 to 5.00
Plasma protein [3]
  fraction unbound: 0.031
Plasma stability, rat
  Plasma Stability: % remaining after 5 hours: 98%
Human D2R/β-arrestin [4]
  pEC50: < 4.52
[5]
  Microsomal Stability: % remaining after 60 minutes: 37%
Solubility in PBS
  solubility: 151 µM (≈ 73 µg/mL)
Plasma stability, human
  Plasma Stability: % remaining after 5 hours: 91%
Human D2R/β-arrestin [6]
  pIC50: 6.00 to 7.00
Plasma protein [7]
  fraction unbound: 0.023
Human D2R/β-arrestin [8]
  pIC50: 6.00 to 7.00
Plasma stability, mouse
  Plasma Stability: % remaining after 5 hours: 74%
[9]
  Microsomal Stability: % remaining after 60 minutes: 61%
Plasma protein [10]
  fraction unbound: 0.03

## FC(F)(F)CN(CC1CCN(CCOc2ccccc2)CC1)C(c1ccc(Cl)cc1)c1ccccn1 (stereo not drawn) [Compound 125, N-((4-chlorophenyl)(pyridin-2-yl)methyl)-2,2,2-trifluoro-N-((1-(2-phenoxyethyl)piperidin-4-yl)methyl)ethanamine]
Human D2R/β-arrestin [2]
  pEC50: 6.00 to 7.00
Human D2R/β-arrestin [4]
  pEC50: < 4.52
[5]
  Microsomal Stability: % remaining after 60 minutes: m12%
Human D2R/β-arrestin [6]
  pIC50: 6.00 to 7.00
D2
  pKi: 6.00 to 7.00
Human D2R/β-arrestin [8]
  pIC50: 6.00 to 7.00

## O=C(NC(c1ccc(Cl)cc1)c1ccc(F)cn1)C1CCN(CCOc2ccccc2F)CC1 (stereo not drawn) [Compound 92, N-((4-chlorophenyl)(5-fluoropyridin-2-yl)methyl)-1-(2-(2-fluorophenoxy)ethyl)piperidine-4-carboxamide]
Human D2R/β-arrestin [2]
  pEC50: 6.00 to 7.00
Human D2R/β-arrestin [4]
  pEC50: < 4.52
[5]
  Microsomal Stability: % remaining after 60 minutes: m22%
Human D2R/β-arrestin [6]
  pIC50: 6.00 to 7.00
D2
  pKi: 6.00 to 7.00
Human D2R/β-arrestin [8]
  pIC50: 6.00 to 7.00

## O=C(NC(c1ccc(Cl)cc1)c1ccccn1)C1CCN(CCOc2ccccc2C(F)(F)F)CC1 (stereo not drawn) [Compound 6]
[1]
  Microsomal Stability: % remaining after 60 minutes: 32%
Human D2R/β-arrestin [2]
  pEC50: < 4.52
Plasma protein [3]
  fraction unbound: 0.008
Plasma stability, rat
  Plasma Stability: % remaining after 5 hours: 69.3%
Human D2R/β-arrestin [4]
  pEC50: < 4.52
[5]
  Microsomal Stability: % remaining after 60 minutes: 22%
Solubility in PBS
  solubility: 0.7 µM (≈ 0.363 µg/mL)
Plasma stability, human
  Plasma Stability: % remaining after 5 hours: 99%
Human D2R/β-arrestin [6]
  pIC50: > 7.00
D2
  pKi: 6.00 to 7.00
Human D2R/β-arrestin [8]
  pIC50: > 7.00
Plasma stability, mouse
  Plasma Stability: % remaining after 5 hours: 98.8%
[9]
  Microsomal Stability: % remaining after 60 minutes: 52%
Plasma protein [10]
  fraction unbound: 0.007

## Clc1ccc(C(c2ccccn2)N2CCC3(CCN(CCOc4ccccc4)CC3)C2)cc1 (stereo not drawn) [Compound 105, 2-((4-chlorophenyl)(pyridin-2-yl)methyl)-8-(2-phenoxyethyl)-2,8-diazaspiro[4.5]decane]
Human D2R/β-arrestin [2]
  pEC50: 6.00 to 7.00
Human D2R/β-arrestin [4]
  pEC50: 5.00 to 6.00
[5]
  Microsomal Stability: % remaining after 60 minutes: m18%
Human D2R/β-arrestin [6]
  pIC50: < 4.52
D2
  pKi: > 7.00
Human D2R/β-arrestin [8]
  pIC50: 6.00 to 7.00

## O=C(NC(c1ccc(Cl)cc1)c1ccccn1)C1CCN(CCOc2cccc(C(F)(F)F)c2)CC1 (stereo not drawn) [Compound 7, N-((4-chlorophenyl)(pyridin-2-yl)methyl)-1-(2-(3-(trifluoromethyl)phenoxy)ethyl) piperidine-4-carboxamide]
[1]
  Microsomal Stability: % remaining after 60 minutes: 76%
Human D2R/β-arrestin [2]
  pEC50: 6.00 to 7.00
Plasma protein [3]
  fraction unbound: 0.004
Plasma stability, rat
  Plasma Stability: % remaining after 5 hours: 93.5%
Human D2R/β-arrestin [4]
  pEC50: < 4.52
[5]
  Microsomal Stability: % remaining after 60 minutes: 44%
Solubility in PBS
  solubility: 0.7 µM (≈ 0.363 µg/mL)
Plasma stability, human
  Plasma Stability: % remaining after 5 hours: 91.5%
Human D2R/β-arrestin [6]
  pIC50: 6.00 to 7.00
Human D2R/β-arrestin [8]
  pIC50: 6.00 to 7.00
Plasma stability, mouse
  Plasma Stability: % remaining after 5 hours: 100%
[9]
  Microsomal Stability: % remaining after 60 minutes: 87%

## CN(CC1CCN(CCOc2ccccc2F)CC1)C(c1ccc(Cl)cc1)c1ccccn1 (single isomer, unassigned) [Compound 72a, 1-(4-chlorophenyl)-N-((1-(2-(2-fluorophenoxy)ethyl)piperidin-4-yl)methyl)-N-methyl-1-(pyridin-2-yl)methanamine]
Human D2R/β-arrestin [2]
  pEC50: 6.00 to 7.00
Human D2R/β-arrestin [4]
  pEC50: 5.00 to 6.00
[5]
  Microsomal Stability: % remaining after 60 minutes: m0%
Solubility in PBS
  solubility: 1.4 µM (≈ 0.655 µg/mL)
Human D2R/β-arrestin [6]
  pIC50: < 4.52
D2
  pKi: 6.00 to 7.00
Human D2R/β-arrestin [8]
  pIC50: 6.00 to 7.00
Plasma stability, mouse
  Plasma Stability: % remaining after 5 hours: m100%

## COc1cccc(C(c2ccccn2)N(C)CC2CCN(CCOc3ccccc3F)CC2)c1 (single isomer, unassigned) [Compound 77a, N-((1-(2-(2-fluorophenoxy)ethyl)piperidin-4-yl)methyl)-1-(3-methoxyphenyl)-N-methyl-1-(pyridin-2-yl)methanamine]
Human D2R/β-arrestin [2]
  pEC50: 6.00 to 7.00
Human D2R/β-arrestin [4]
  pEC50: < 4.52
[5]
  Microsomal Stability: % remaining after 60 minutes: m1%
Human D2R/β-arrestin [6]
  pIC50: 6.00 to 7.00
D2
  pKi: 6.00 to 7.00
Human D2R/β-arrestin [8]
  pIC50: 6.00 to 7.00

## CN(CC1CCN(CCOc2ccccc2)CC1)C(c1ccc(Cl)cc1)c1ccccn1 (single isomer, unassigned) [Compound 79b, 1-(4-chlorophenyl)-N-methyl-N-((1-(2-phenoxyethyl)piperidin-4-yl)methyl)-1-(pyridin-2-yl)methanamine]
Human D2R/β-arrestin [2]
  pEC50: 6.00 to 7.00
Human D2R/β-arrestin [4]
  pEC50: < 4.52
[5]
  Microsomal Stability: % remaining after 60 minutes: m0%
Solubility in PBS
  solubility: 8 µM (≈ 3.6 µg/mL)
Human D2R/β-arrestin [12]; [13]
  pIC50: 5.00 to 6.00
Human D2R/β-arrestin [6]
  pIC50: < 4.52
D2
  pKi: 6.00 to 7.00
Plasma stability, mouse
  Plasma Stability: % remaining after 5 hours: m100%

## CC1(C(=O)NC(c2ccc(Cl)cc2)c2ccccn2)CCN(CCOc2ccccc2)CC1 (single isomer, unassigned) [Compound 144a, N-((4-chlorophenyl)(pyridin-2-yl)methyl)-4-methyl-1-(2-phenoxyethyl)piperidine-4-carboxamide]
Human D2R/β-arrestin [2]
  pEC50: > 7.00
Human D2R/β-arrestin [4]
  pEC50: > 7.00
[5]
  Microsomal Stability: % remaining after 60 minutes: m1%
Human D2R/β-arrestin [6]
  pIC50: < 4.52
D2
  pKi: > 7.00
Human D2R/β-arrestin [8]
  pIC50: > 7.00

## O=C(NC(c1ccc2c(c1)OC(F)(F)O2)c1ccccn1)C1CCN(CCOc2ccccc2F)CC1 (single isomer, unassigned) [Compound 94a, N-((2,2-difluorobenzo[d][1,3]dioxol-5-yl)(pyridin-2-yl)methyl)-1-(2-(2-fluorophenoxy)ethyl)piperidine-4-carboxamide]
Human D2R/β-arrestin [2]
  pEC50: < 4.52
Human D2R/β-arrestin [4]
  pEC50: < 4.52
[5]
  Microsomal Stability: % remaining after 60 minutes: m2%
Human D2R/β-arrestin [6]
  pIC50: > 7.00
D2
  pKi: 6.00 to 7.00
Human D2R/β-arrestin [8]
  pIC50: 6.00 to 7.00

## O=C(NC(c1ccc2c(c1)OC(F)(F)O2)c1ccccn1)C1CCN(CCOc2ccccc2)CC1 (single isomer, unassigned) [Compound 119b]
Human D2R/β-arrestin [2]
  pEC50: > 7.00
Plasma protein [3]
  Plasma Protein Binding % bound: m97.4%
Human D2R/β-arrestin [4]
  pEC50: 6.00 to 7.00
[5]
  Microsomal Stability: % remaining after 60 minutes: m51%
Human D2R/β-arrestin [12]
  pIC50: 5.00 to 6.00
Human D2R/β-arrestin [11]
  pIC50: < 4.52
Plasma stability, mouse
  Plasma Stability: % remaining after 5 hours: m100%

## O=C(NC(c1ccc2c(c1)OCO2)c1ccccn1)C1CCN(CCOc2ccccc2F)CC1 (stereo not drawn) [Compound 95, N-(benzo[d][1,3]dioxol-5-yl(pyridin-2-yl)methyl)-1-(2-(2-fluorophenoxy)ethyl) piperidine-4-carboxamide]
Human D2R/β-arrestin [2]
  pEC50: 6.00 to 7.00
Human D2R/β-arrestin [4]
  pEC50: < 4.52
[5]
  Microsomal Stability: % remaining after 60 minutes: m33%
Human D2R/β-arrestin [6]
  pIC50: 6.00 to 7.00
D2
  pKi: 6.00 to 7.00
Human D2R/β-arrestin [8]
  pIC50: 6.00 to 7.00
